#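 Cultured in 96-well plates, cells were exposed to test compound for 48 hours across five concentrations. GI50 marks 50% less growth. TGI marks complete inhibition of growth.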
# How the values were obtained:
# Experiment in all cases: inhibition of tumour cell growth, NCI panel, 48 h
# [1] = system: 786-0 renal
# [2] = system: A498 renal
# [3] = system: A549 NSCLC
# [4] = system: ACHN renal
# [5] = system: BT-549 breast
# [6] = system: CAKI-1 renal
# [7] = system: CCRF-CEM leukemia
# [8] = system: COLO 205 colon
# [9] = system: DU-145 prostate
# [10] = system: EKVX NSCLC
# [11] = system: HCC-2998 colon
# [12] = system: HCT-116 colon
# [13] = system: HCT-15 colon
# [14] = system: HL-60(TB) leukemia
# [15] = system: HOP-62 NSCLC
# [16] = system: HOP-92 NSCLC
# [17] = system: HS 578T breast
# [18] = system: HT29 colon
# [19] = system: IGROV1 ovarian
# [20] = system: K-562 leukemia
# [21] = system: KM12 colon
# [22] = system: M14 melanoma
# [23] = system: MALME-3M melanoma
# [24] = system: MCF7 breast
# [25] = system: MDA-MB-231 breast
# [26] = system: MDA-MB-435
# [27] = system: NCI-H226 lung
# [28] = system: NCI-H23 lung
# [29] = system: NCI-H460 lung
# [30] = system: NCI-H522 lung
# [31] = system: NCI/ADR-RES ovarian
# [32] = system: OVCAR-3 ovarian
# [33] = system: OVCAR-4 ovarian
# [34] = system: OVCAR-5 ovarian
# [35] = system: OVCAR-8 ovarian
# [36] = system: PC-3 prostate
# [37] = system: RPMI-8226 leukemia
# [38] = system: RXF 393 renal
# [39] = system: SF-268 CNS
# [40] = system: SF-295 CNS
# [41] = system: SF-539 CNS
# [42] = system: SK-MEL-2 melanoma
# [43] = system: SK-MEL-28 melanoma
# [44] = system: SK-MEL-5 melanoma
# [45] = system: SK-OV-3 ovarian
# [46] = system: SN12C renal
# [47] = system: SNB-19 CNS
# [48] = system: SNB-75 CNS
# [49] = system: SW-620 colon
# [50] = system: T-47D breast
# [51] = system: TK-10 renal
# [52] = system: U251 CNS
# [53] = system: UACC-257 melanoma
# [54] = system: UACC-62 melanoma
# [55] = system: UO-31 renal
smiles,measurement,setting,value
COc1cc2c(cc1OC)[C@@H]1C(=O)c3cc4c(cc3[C@@H]1N(CCN(C)C)C2=O)OCO4,GI50,[1],< 20.3 nM
same,TGI,[1],5020 nM
same,GI50,[2],2780 nM
same,TGI,[2],9430 nM
same,GI50,[3],171 nM
same,TGI,[3],3670 nM
same,GI50,[4],17.9 nM
same,TGI,[4],452 nM
same,GI50,[5],838 nM
same,TGI,[5],22900 nM
same,TGI,[6],1080 nM
same,TGI,[7],> 100000 nM
same,GI50,[8],663 nM
same,TGI,[8],> 35500 nM
same,GI50,[9],30 nM
same,TGI,[9],4840 nM
same,GI50,[10],1260 nM
same,TGI,[10],21500 nM
same,GI50,[11],609 nM
same,TGI,[11],9770 nM
same,GI50,[12],116 nM
same,TGI,[12],1530 nM
same,GI50,[13],368 nM
same,TGI,[13],5820 nM
same,GI50,[14],23.7 nM
same,TGI,[14],75.2 nM
same,GI50,[15],35.5 nM
same,TGI,[15],10600 nM
same,GI50,[16],208 nM
same,TGI,[16],8870 nM
same,GI50,[17],11100 nM
same,TGI,[17],38500 nM
same,GI50,[18],104 nM
same,GI50,[19],445 nM
same,TGI,[19],> 100000 nM
same,GI50,[20],270 nM
same,TGI,[20],> 42400 nM
same,GI50,[21],355 nM
same,TGI,[21],2170 nM
same,GI50,[22],81.4 nM
same,TGI,[22],11200 nM
same,GI50,[23],188 nM
same,TGI,[23],3660 nM
same,GI50,[24],< 36.6 nM
same,TGI,[24],14200 nM
same,GI50,[25],1060 nM
same,TGI,[25],11800 nM
same,GI50,[26],787 nM
same,TGI,[26],23500 nM
same,GI50,[27],210 nM
same,TGI,[27],2280 nM
same,GI50,[28],162 nM
same,TGI,[28],5090 nM
same,GI50,[29],< 23.4 nM
same,TGI,[29],2360 nM
same,GI50,[30],61.1 nM
same,TGI,[30],3200 nM
same,GI50,[31],337 nM
same,TGI,[31],14700 nM
same,GI50,[32],349 nM
same,TGI,[32],1960 nM
same,GI50,[33],768 nM
same,TGI,[33],18300 nM
same,GI50,[34],1100 nM
same,TGI,[34],15500 nM
same,GI50,[35],661 nM
same,TGI,[35],9660 nM
same,GI50,[36],316 nM
same,TGI,[36],13300 nM
same,GI50,[37],28.9 nM
same,TGI,[37],349 nM
same,GI50,[38],1260 nM
same,TGI,[38],> 21600 nM
same,GI50,[39],56 nM
same,TGI,[39],18100 nM
same,GI50,[40],19.4 nM
same,TGI,[40],37100 nM
same,GI50,[41],66.9 nM
same,TGI,[41],11100 nM
same,GI50,[42],11100 nM
same,TGI,[42],> 100000 nM
same,GI50,[43],2190 nM
same,TGI,[43],> 41300 nM
same,GI50,[44],144 nM
same,TGI,[44],935 nM
same,GI50,[45],4200 nM
same,TGI,[45],> 65200 nM
same,GI50,[46],44.4 nM
same,TGI,[46],3740 nM
same,GI50,[47],1730 nM
same,TGI,[47],> 47300 nM
same,GI50,[48],11100 nM
same,TGI,[48],30700 nM
same,GI50,[49],36.9 nM
same,TGI,[49],18700 nM
same,GI50,[50],923 nM
same,TGI,[50],31300 nM
same,GI50,[51],1530 nM
same,TGI,[51],13700 nM
same,GI50,[52],42.7 nM
same,TGI,[52],12000 nM
same,GI50,[53],784 nM
same,TGI,[53],> 33100 nM
same,GI50,[54],< 14.6 nM
same,TGI,[54],544 nM
same,GI50,[55],85.5 nM

# — PubChem BioAssay (NCI)
